In brackets after ≈: the same amount, converted by molar mass. Like-named read-outs stand apart in the source and are kept apart here.
Experiments:
Type in all cases: cell-based
E. coli ATCC 25922 = assay: IHMA QC MIC; settings: Escherichia coli, ATCC25922; read-out: MIC (QC, repeated tests)
[1] = tested on: 100 A. baumannii strains (50 MDR, 50 non-MDR); assay: MIC broth microdilution at IHMA Europe, panel of 100 strains; settings: Acinetobacter baumannii; for MIC50: read-out: MIC 50
E. coli ATCC 35218 = assay: IHMA QC MIC; settings: Escherichia coli, ATCC35218; read-out: MIC (QC, repeated tests)
Description: (§1) The panel of Hungarian clinical isolates and controls measured following the same method as detailed above, and albeit measurements were carried out in 384-well microtiter plates (Corning Inc.).

A. baumannii ATCC 17978 = assay: IHMA QC MIC; settings: Acinetobacter baumannii, ATCC17978; read-out: MIC (QC, repeated tests)
Description: as §1

## COc1c(N2C[C@@H]3CCCN[C@@H]3C2)c(F)cc2c(=O)c(C(=O)O)cn(C3CC3)c12 [Moxifloxacin, moxifloxacin]
E. coli ATCC 25922
  MIC: ≤ 0.5 µg/mL
[1]; A. baumannii IHMA 1769393, Lithuania 2018, Non-MDR, read-out: MIC
  MIC: ≤ 0.5 µg/mL
[1]; A. baumannii IHMA 1769782, Israel 2018, MDR, read-out: MIC
  MIC: 8 µg/mL (≈ 19.9 µM)
[1]; A. baumannii IHMA 1769910, Israel 2018, Non-MDR, read-out: MIC
  MIC: ≤ 0.5 µg/mL
[1]; A. baumannii IHMA 1790317, Czech Republic 2018, Non-MDR, read-out: MIC
  MIC: ≤ 0.5 µg/mL
[1]; A. baumannii IHMA 1790916, Romania 2018, Non-MDR, read-out: MIC
  MIC: ≤ 0.5 µg/mL
[1]; A. baumannii IHMA 1791877, Israel 2018, MDR, read-out: MIC
  MIC: 8 µg/mL (≈ 19.9 µM)
[1]; A. baumannii IHMA 1792961, Jordan 2018, MDR, read-out: MIC
  MIC: 8 µg/mL (≈ 19.9 µM)
[1]; A. baumannii IHMA 1795669, Tunisia 2018, Non-MDR, read-out: MIC
  MIC: ≤ 0.5 µg/mL
[1]; A. baumannii IHMA 1815856, Israel 2018, MDR, read-out: MIC
  MIC: 8 µg/mL (≈ 19.9 µM)
[1]; A. baumannii IHMA 1821468, South Africa 2018, Non-MDR, read-out: MIC
  MIC: ≤ 0.5 µg/mL
[1]; A. baumannii IHMA 1829500, Georgia 2018, Non-MDR, read-out: MIC
  MIC: ≤ 0.5 µg/mL
[1]; A. baumannii IHMA 1830924, United Kingdom 2018, Non-MDR, read-out: MIC
  MIC: ≤ 0.5 µg/mL
[1]; A. baumannii IHMA 1849829, Kuwait 2018, Non-MDR, read-out: MIC
  MIC: ≤ 0.5 µg/mL
[1]; A. baumannii IHMA 1857118, Slovenia 2018, Non-MDR, read-out: MIC
  MIC: ≤ 0.5 µg/mL
[1]; A. baumannii IHMA 1863631, France 2018, Non-MDR, read-out: MIC
  MIC: ≤ 0.5 µg/mL
[1]; A. baumannii IHMA 1870054, United States 2018, Non-MDR, read-out: MIC
  MIC: ≤ 0.5 µg/mL
[1]; A. baumannii IHMA 1884428, Italy 2018, Non-MDR, read-out: MIC
  MIC: ≤ 0.5 µg/mL
[1]; A. baumannii IHMA 1884990, Germany 2018, Non-MDR, read-out: MIC
  MIC: ≤ 0.5 µg/mL
[1]; A. baumannii IHMA 1900538, Turkey 2018, Non-MDR, read-out: MIC
  MIC: ≤ 0.5 µg/mL
[1]; A. baumannii IHMA 1913773, Kenya 2018, Non-MDR, read-out: MIC
  MIC: ≤ 0.5 µg/mL
[1]; A. baumannii IHMA 1926285, Qatar 2018, Non-MDR, read-out: MIC
  MIC: ≤ 0.5 µg/mL
[1]; A. baumannii IHMA 1957343, Portugal 2019, Non-MDR, read-out: MIC
  MIC: ≤ 0.5 µg/mL
[1]; A. baumannii IHMA 1967860, Spain 2019, Non-MDR, read-out: MIC
  MIC: ≤ 0.5 µg/mL
[1]; A. baumannii IHMA 1975075, Israel 2019, Non-MDR, read-out: MIC
  MIC: ≤ 0.5 µg/mL
[1]; A. baumannii IHMA 1977077, Kuwait 2019, Non-MDR, read-out: MIC
  MIC: ≤ 0.5 µg/mL
[1]; A. baumannii IHMA 1983151, Greece 2019, MDR, read-out: MIC
  MIC: 8 µg/mL (≈ 19.9 µM)
[1]; A. baumannii IHMA 1986678, Turkey 2019, Non-MDR, read-out: MIC
  MIC: ≤ 0.5 µg/mL
[1]; A. baumannii IHMA 1987162, Croatia 2019, MDR, read-out: MIC
  MIC: 8 µg/mL (≈ 19.9 µM)
[1]; A. baumannii IHMA 1993615, Turkey 2019, MDR, read-out: MIC
  MIC: 8 µg/mL (≈ 19.9 µM)
[1]; A. baumannii IHMA 1995161, Czech Republic 2019, Non-MDR, read-out: MIC
  MIC: ≤ 0.5 µg/mL
[1]; A. baumannii IHMA 1997936, Morocco 2019, Non-MDR, read-out: MIC
  MIC: ≤ 0.5 µg/mL
[1]; A. baumannii IHMA 1999178, Belgium 2019, Non-MDR, read-out: MIC
  MIC: ≤ 0.5 µg/mL
[1]; A. baumannii IHMA 2014367, Jordan 2019, Non-MDR, read-out: MIC
  MIC: ≤ 0.5 µg/mL
[1]; A. baumannii IHMA 2014931, South Africa 2019, Non-MDR, read-out: MIC
  MIC: ≤ 0.5 µg/mL
[1]; A. baumannii IHMA 2019315, Romania 2019, Non-MDR, read-out: MIC
  MIC: ≤ 0.5 µg/mL
[1]; A. baumannii IHMA 2031511, Greece 2019, Non-MDR, read-out: MIC
  MIC: ≤ 0.5 µg/mL
[1]; A. baumannii IHMA 2031524, Greece 2019, MDR, read-out: MIC
  MIC: 4 µg/mL (≈ 9.96 µM)
[1]; A. baumannii IHMA 2034657, Tunisia 2019, Non-MDR, read-out: MIC
  MIC: ≤ 0.5 µg/mL
[1]; A. baumannii IHMA 2035134, Serbia 2019, Non-MDR, read-out: MIC
  MIC: ≤ 0.5 µg/mL
[1]; A. baumannii IHMA 2038976, Hungary 2019, MDR, read-out: MIC
  MIC: 8 µg/mL (≈ 19.9 µM)
[1]; A. baumannii IHMA 2058329, Slovenia 2019, Non-MDR, read-out: MIC
  MIC: ≤ 0.5 µg/mL
[1]; A. baumannii IHMA 2065587, France 2019, Non-MDR, read-out: MIC
  MIC: ≤ 0.5 µg/mL
[1]; A. baumannii IHMA 2099294, United Kingdom 2019, Non-MDR, read-out: MIC
  MIC: ≤ 0.5 µg/mL
[1]; A. baumannii IHMA 2129256, Qatar 2019, Non-MDR, read-out: MIC
  MIC: ≤ 0.5 µg/mL
[1]; A. baumannii IHMA 2157614, Australia 2020, Non-MDR, read-out: MIC
  MIC: ≤ 0.5 µg/mL
[1]; A. baumannii IHMA 2178574, Ukraine 2020, Non-MDR, read-out: MIC
  MIC: ≤ 0.5 µg/mL
[1]; A. baumannii IHMA 2180134, Malaysia 2020, Non-MDR, read-out: MIC
  MIC: ≤ 0.5 µg/mL
[1]; A. baumannii IHMA 2180142, Malaysia 2020, MDR, read-out: MIC
  MIC: 8 µg/mL (≈ 19.9 µM)
[1]; A. baumannii IHMA 2181370, Morocco 2020, MDR, read-out: MIC
  MIC: 8 µg/mL (≈ 19.9 µM)
[1]; A. baumannii IHMA 2183729, Argentina 2020, MDR, read-out: MIC
  MIC: 4 µg/mL (≈ 9.96 µM)
[1]; A. baumannii IHMA 2183849, Argentina 2020, Non-MDR, read-out: MIC
  MIC: ≤ 0.5 µg/mL
[1]; A. baumannii IHMA 2184382, Japan 2020, Non-MDR, read-out: MIC
  MIC: ≤ 0.5 µg/mL
[1]; A. baumannii IHMA 2193375, Venezuela 2020, MDR, read-out: MIC
  MIC: 8 µg/mL (≈ 19.9 µM)
[1]; A. baumannii IHMA 2193485, Venezuela 2020, Non-MDR, read-out: MIC
  MIC: ≤ 0.5 µg/mL
[1]; A. baumannii IHMA 2193607, Venezuela 2020, MDR, read-out: MIC
  MIC: 4 µg/mL (≈ 9.96 µM)
[1]; A. baumannii IHMA 2195460, Italy 2020, MDR, read-out: MIC
  MIC: 8 µg/mL (≈ 19.9 µM)
[1]; A. baumannii IHMA 2196959, South Africa 2020, MDR, read-out: MIC
  MIC: 8 µg/mL (≈ 19.9 µM)
[1]; A. baumannii IHMA 2206507, Taiwan 2020, Non-MDR, read-out: MIC
  MIC: ≤ 0.5 µg/mL
[1]; A. baumannii IHMA 2212575, Hungary 2020, Non-MDR, read-out: MIC
  MIC: ≤ 0.5 µg/mL
[1]; A. baumannii IHMA 2215307, Hong Kong 2020, Non-MDR, read-out: MIC
  MIC: ≤ 0.5 µg/mL
[1]; A. baumannii IHMA 2216586, Taiwan 2020, MDR, read-out: MIC
  MIC: 8 µg/mL (≈ 19.9 µM)
[1]; A. baumannii IHMA 2223200, Colombia 2020, Non-MDR, read-out: MIC
  MIC: ≤ 0.5 µg/mL
[1]; A. baumannii IHMA 2224303, Panama 2020, Non-MDR, read-out: MIC
  MIC: ≤ 0.5 µg/mL
[1]; A. baumannii IHMA 2233099, Guatemala 2020, MDR, read-out: MIC
  MIC: 8 µg/mL (≈ 19.9 µM)
[1]; A. baumannii IHMA 2233548, Kazakhstan 2020, Non-MDR, read-out: MIC
  MIC: ≤ 0.5 µg/mL
[1]; A. baumannii IHMA 2238964, Thailand 2020, MDR, read-out: MIC
  MIC: 8 µg/mL (≈ 19.9 µM)
[1]; A. baumannii IHMA 2239052, Thailand 2020, Non-MDR, read-out: MIC
  MIC: ≤ 0.5 µg/mL
[1]; A. baumannii IHMA 2261047, Belgium 2020, MDR, read-out: MIC
  MIC: 8 µg/mL (≈ 19.9 µM)
[1]; A. baumannii IHMA 2261633, Canada 2020, Non-MDR, read-out: MIC
  MIC: ≤ 0.5 µg/mL
[1]; A. baumannii IHMA 2274234, South Africa 2020, MDR, read-out: MIC
  MIC: 8 µg/mL (≈ 19.9 µM)
[1]; A. baumannii IHMA 2275237, Chile 2020, Non-MDR, read-out: MIC
  MIC: ≤ 0.5 µg/mL
[1]; MDR n = 50, read-out: MIN (minimum MIC)
  MIC: 4 µg/mL (≈ 9.96 µM)
[1]; all isolates n = 100
  MIC50: ≤ 0.5 µg/mL
[1]; all isolates n = 100, read-out: MIN (minimum MIC)
  MIC: ≤ 0.5 µg/mL
[1]; non-MDR n = 50, read-out: MAX (maximum MIC)
  MIC: ≤ 0.5 µg/mL
[1]; non-MDR n = 50
  MIC50: ≤ 0.5 µg/mL
[1]; non-MDR n = 50, read-out: MIC 90
  MIC90: ≤ 0.5 µg/mL
[1]; non-MDR n = 50, read-out: MIN (minimum MIC)
  MIC: ≤ 0.5 µg/mL
E. coli ATCC 35218
  MIC: ≤ 0.5 µg/mL
A. baumannii ATCC 17978
  MIC: ≤ 0.5 µg/mL

Reference: paper PMC10041525, “New Dual Inhibitors of Bacterial Topoisomerases with Broad-Spectrum Antibacterial Activity and In Vivo Efficacy against Vancomycin-Intermediate Staphylococcus aureus” (Journal of Medicinal Chemistry, 2023)
